We go through two substances from patent US20130338264A1, “CONDENSATION PRODUCTS OF MELAMINE AND PHENYLPHOSPHONIC ACID AND THEIR USE AS FLAME RETARDANTS” (BASF SE, priority 2011, published 2013).

Data set [1] is described as follows: Decomposition by TGA (thermogravimetric analysis). Type of data set: physicochemical. The conditions noted are these: for TGA onset [° C.]: overview table. As to the method:
Melamine hydrogenphenylphosphonate (MPPO) from example 1 (10.000 g, 0.04 mol) is tempered in a glass tube at 300° C./5·10^−1 mbar for 2 h and additional for 22 h. The mass balance is monitored for the residual by gravimetrically methods. The obtained product is characterized by phosphorous content, 1,3,5-triazine components and thermogravimetry.
Based on the results of the thermo gravimetric analysis (TGA) of the compounds in examples A1-A5 one can conclude that the condensation of melamine hydrogene phenyphosphonate occurs in a two step mode. […] The mode of condensation therefore may be controlled in a balanced thermometric and stoichiometric approach. According to example A2-A4 in a temperature range of 280-300° C. melam formation is favoured. However, other temperature profiles could be more suitable for other stoichiometric ratios. The increasing phosphorous content in the compounds of example A2-A3 in comparison to example A5 points to the condensation of phenylphosphonic anions.

Data set [2] can be described thus: Solubility in water. Type of data set: physicochemical. As to the method:
Solubility in water: 11 g/L (25° C.); 70 g/L (95° C.)

Regarding “Melam Phenylhydrogenphosphonate [Example A5]”, in data set [1], the “Decomposition by TGA: onset” value worked out at 345 °C and the “TGA onset [° C.]” value worked out at 345 °C. For the same substance, in data set [1] (T = 372 ° C.), the “TGA Mass loss at T ° C. [%]” value was 372 [−15%]. For the same substance, the “Decomposition by TGA: mass loss at onset” value in data set [1] (at onset 345° C., 1 molÄq H2O) is listed as −4.5%. The “Decomposition by TGA: mass loss at onset” value in data set [1] (at onset 372° C.) is reported as −55%. Besides, the “Decomposition by TGA: onset (second step)” value in data set [1] (second onset printed) amounted to 372 °C.
For “Melamine Phenylhydrogenphosphonate (MPPO) [Example A1]”, the Solubility in water in data set [2] (25° C.) turned out to be 11 mg/mL. This substance gave a Solubility in water in data set [2] (95° C.) of 70 mg/mL. In data set [1], the “Decomposition by TGA: onset” value is 277 °C and the “TGA onset [° C.]” value was 277 °C. In addition, the “TGA Mass loss at T ° C. [%]” value in data set [1] (T = 320 ° C.) is 320 [−10%]. Also, the “Decomposition by TGA: mass loss at onset” value in data set [1] (at onset 277° C.) is −12%.
